Where two headings read alike, the source gives them in different places.
Assays:
[1] = system: collagen I and III, MMP1, MMP3, MMP9, MMP13; assay: Collagen and MMP expression in the host-lesion microenvironment (TEM, Sirius red, qPCR, western blot); type: in vivo; conditions: infected BALB/c mice, 6 weeks oral treatment
Description: The metacestodes were fixed with 4% paraformaldehyde and embedded in paraffin to make sections with a thickness of […]. The sections were dewaxed with water, stained with Picrosirius red for 10 min, rinsed and dehydrated with anhydrous ethanol, and sealed with neutral balsam after the xylene was transparent. Each section of 400× visual field image was randomly collected. The ratio of the area of all images collected to the area of the visual field was measured using the ImageJ analysis system, and the percentage of collagen fibre was calculated.
The variations in the microstructure of the protoscoleces or metacestodes were observed under an electron microscope. […] They were washed twice in PBS and then fixed for 3 h with 2.5% glutaraldehyde (pH = 7.2); next, they underwent 2 h post-fixation in 2% OsO4 (SPI-CHEM, West Chester, PA, USA). Subsequently, the samples were washed in double-distilled water and treated with 1% uranyl acetate for 25 min. After the samples were washed again in double-distilled water, dehydration was conducted in ethanol at continuous gradients (30–50–70–80–90–95–100%) over a period of 10 min. For SEM analysis, the dehydrated samples were dipped into hexamethyldisiloxane and then air-dried in a fume hood. The sample was observed under a Hitachi SU8100 scanning electron microscope (Tokyo, Japan) after gold spraying. For TEM analysis, the dehydrated samples passed through a dehydrating agent, and an epoxy resin (SPI-CHEM) permeated and polymerized at 60 °C overnight. A 50-nm ultra-thin section was prepared and then loaded on a 300-mesh copper grid. It was stained with uranyl acetate and lead citrate (SPI-CHEM). The sample was observed under a Hitachi HT7700 transmission electron microscope. To reduce the bias, electron microscopy was observed by professionals in the case of an unknown group.
Total RNA was extracted with TRIzol Reagent (Thermo Fisher Scientific, Waltham, MA, USA) according to the manufacturer’s instructions. The purity and concentrations of RNA were quantified using NanoDrop 2000 absorbance measurements at 260/280 nm. Total RNA was converted into cDNA sequences using the FastKing gDNA Dispelling RT SuperMix Kit (TIANGEN Biotech), and RT-qPCR was performed using the RealUniversal Color PreMix Kit (TIANGEN Biotech) on an ABI QuantStudio 5 system (Applied Biosystems, Waltham, MA, USA). The specific primers are shown in Additional file 4: Table S1. The PCR cycling conditions were as follows: pre-denaturation at 95 °C for 15 min followed by 40 cycles at 95 °C for 10 s and 60 °C for 34 s. The relative mRNA expression levels were quantified using the 2^−ΔΔCT method. RPS18 served as an internal control.
A total protein extraction kit (Solarbio) was used to extract cell or tissue total protein. The protein concentration was determined by the protein quantitative assay kit (Thermo Fisher Scientific). Then, electrophoresis was performed with 20–50 μg of protein sample. The protein was separated by sodium dodecyl sulfate polyacrylamide gel electrophoresis (SDS-PAGE) and transferred to a 0.22 μm PVDF membrane (Merck Millipore, Darmstadt, Germany). The PVDF membrane was blocked with 5% of nonfat powdered milk in Tris-buffered saline Tween 20 (TBST) for 1 h at room temperature. The membrane incubation with primary antibodies was performed at 4 °C overnight. The antibody information is listed in Additional file 5: Table S2. The membrane was washed with TBST and incubated with HRP-labeled secondary antibodies (1:5000, Abclonal, Wuhan, China) for 1 h at room temperature. Blotted membranes were visualized using enhanced chemiluminescence reagents (Thermo Fisher Scientific). Protein expression was depicted as the intensity of each protein relative to that of β-actin using ImageJ software.

[2] = system: E. multilocularis metacestodes; assay: Morphology of in vitro treated metacestode vesicles (light microscope, SEM, TEM); type: cell-based, Echinococcus multilocularis; conditions: 5 μM, 5 days
Description: The variations in the microstructure of the protoscoleces or metacestodes were observed under an electron microscope. In vitro-cultured E. multilocularis protoscoleces and metacestodes were treated with thiacloprid at 0 and 5 μM for 5 days at 37 °C and 5% CO2. They were washed twice in PBS and then fixed for 3 h with 2.5% glutaraldehyde (pH = 7.2); next, they underwent 2 h post-fixation in 2% OsO4 (SPI-CHEM, West Chester, PA, USA). Subsequently, the samples were washed in double-distilled water and treated with 1% uranyl acetate for 25 min. After the samples were washed again in double-distilled water, dehydration was conducted in ethanol at continuous gradients (30–50–70–80–90–95–100%) over a period of 10 min. For SEM analysis, the dehydrated samples were dipped into hexamethyldisiloxane and then air-dried in a fume hood. The sample was observed under a Hitachi SU8100 scanning electron microscope (Tokyo, Japan) after gold spraying. For TEM analysis, the dehydrated samples passed through a dehydrating agent, and an epoxy resin (SPI-CHEM) permeated and polymerized at 60 °C overnight. A 50-nm ultra-thin section was prepared and then loaded on a 300-mesh copper grid. It was stained with uranyl acetate and lead citrate (SPI-CHEM). The sample was observed under a Hitachi HT7700 transmission electron microscope. […]

[3] = system: Human foreskin fibroblasts (HFF); assay: alamarBlue cytotoxicity assay, HFF; type: cell-based; conditions: Fibroblast, 120 h, 5 days
Description: An alamarBlue assay was used to assess the toxicity of thiacloprid to confluent and pre-confluent mammalian cells in vitro [29]. Human foreskin fibroblasts (HFF, Procell) and rat hepatoma cells (RH, Procell) were seeded into 96-well cell culture plates in DMEM supplemented with 10% FBS and 1% penicillin–streptomycin at 37 °C and 5% CO2. For detecting the growth inhibitory effects of confluent cells, HFF and RH cells were seeded at 10,000 cells per well and 50,000 cells per well, respectively. After overnight culture, thiacloprid or PZQ was added and diluted in serial concentrations (0, 0.6, 1.2, 2.5, 5, 10, 20, 40, 80 and 160 μM). For detecting growth inhibitory effects on proliferating cells, cells were seeded at 1000 (HFF) and 5000 (RH) cells per well. Thiacloprid was added after 5 h of cell attachment. To measure the viability of the cells after treatment for 5 days, the alamarBlue assay was employed and viability calculated as described previously.

Structure (SMILES): N#C/N=C1\SCCN1Cc1ccc(Cl)nc1 [thiacloprid]
- Collagen fiber deposition in the host-lesion microenvironment (TEM) [1]: can promote
- mRNA expression of MMP1, MMP3, MMP9 and MMP13 in the microenvironment ([1]; qPCR): significantly inhibited
- mRNA and protein expression levels of collagen I and III in the host-lesion microenvironment ([1]; qPCR, western blot): increased
- Protein expression levels of MMP1, MMP3, MMP9 and MMP13 ([1]; western blot): decreased
- Morphological alterations of metacestode vesicles under a light microscope [2]: contraction and collapse
- TEM of metacestode vesicles [2]: obvious ultrastructural damage
- IC50 ([3]; confluent cells, read-out: IC50 on confluent HFF): 68.7 ± 9.71 µM
- IC50 ([3]; pre-confluent cells, read-out: IC50 on pre-confluent HFF): 64.8 ± 5.79 µM

Source: PMC8419995, “In vitro and in vivo efficacy of thiacloprid against Echinococcus multilocularis” (Parasites & Vectors, 2021)
